Experimental data from patent publication US9199946B2, “Pyrimidinone carboxamide inhibitors of endothelial lipase” (BRISTOL-MYERS SQUIBB COMPANY, priority 2012, dated 2015).
Like-named read-outs stand apart in the source and are kept apart here.

Target: T1, Endothelial lipase (EL) (Homo sapiens, UniProt Q9Y5X9)
T1 construct: HT-1080 cells, which were transformed by RAGE technology (Athersys) to overexpress endogenous EL; endogenous in cells; conditioned medium used as the enzyme source
T1 sequence (Q9Y5X9 21-500): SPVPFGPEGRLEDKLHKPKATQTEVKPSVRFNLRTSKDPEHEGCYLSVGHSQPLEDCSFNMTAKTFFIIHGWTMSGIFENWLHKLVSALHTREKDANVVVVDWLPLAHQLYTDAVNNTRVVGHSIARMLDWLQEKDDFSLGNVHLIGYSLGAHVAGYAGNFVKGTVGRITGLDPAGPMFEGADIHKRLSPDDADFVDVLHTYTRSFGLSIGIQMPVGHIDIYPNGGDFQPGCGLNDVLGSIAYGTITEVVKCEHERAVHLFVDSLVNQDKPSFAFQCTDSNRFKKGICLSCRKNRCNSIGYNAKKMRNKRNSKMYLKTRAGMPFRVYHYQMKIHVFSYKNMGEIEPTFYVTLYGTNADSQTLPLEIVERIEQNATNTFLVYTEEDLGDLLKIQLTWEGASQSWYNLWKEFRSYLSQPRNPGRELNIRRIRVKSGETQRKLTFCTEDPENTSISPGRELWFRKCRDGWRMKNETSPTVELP
Assay: Endothelial lipase (EL) enzymatic assay with fluorescent substrate A10070 in DMPG vesicles
Format: biochemical
In short: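 The enzyme source was conditioned medium from HT-1080 cells engineered to overexpress endogenous EL. It was preincubated with compound for 20 min at 37 °C in 50 mM HEPES pH 8.0, 50 mM NaCl, 1 mM CaCl2. Reactions started with DMPG vesicles carrying FRET substrate A10070 (mole fraction 0.05). The rate was taken from the linear slope of fluorescence (ex 488/em 530 nm) over 10 min.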

[1] = conditioned media from HT-1080 cells overexpressing endogenous EL, 20 min preincubation at 37° C., read-out: EL IC50
[2] = range observed in the EL assay, read-out: EL IC50 values

| IC50 [1] | IC50 [2] | SMILES |
| --- | --- | --- |
| 22.2 µM |  | COc1ccc2c(c1)C(NC(=O)c1[nH]c(=O)[nH]c(=O)c1N)CC2 (single isomer, unassigned) [Example 72, 5-amino-N-(6-methoxy-2,3-dihydro-1H-inden-1-yl)-2,6-dioxo-1,2,3,6-tetrahydropyrimidine-4-carboxamide] |
|  | ≤ 10 µM | COc1cccc2c1C(NC(=O)c1[nH]c(=O)[nH]c(=O)c1N)CCC2 (single isomer, unassigned; enantiomer a) [Example 201, 5-amino-N-(8-methoxy-1,2,3,4-tetrahydronaphthalen-1-yl)-2,6-dioxo 1,2,3,6-tetrahydropyrimidine-4-carboxamide (Enantiomer A)] |
|  | ≤ 10 µM | CCn1c(=O)[nH]c(C(=O)N[C@H]2CC[C@@H](c3ccccc3)CC2)c(O)c1=O [Example 239, 1-Ethyl-5-hydroxy-2,6-dioxo-N-(cis-4-phenylcyclohexyl)-1,2,3,6-tetrahydropyrimidine-4-carboxamide] |
|  | ≤ 10 µM | Nc1c(C(=O)N[C@@H]2CC[C@@H](C(=O)Nc3cnn(Cc4ccccc4)c3)C2)[nH]c(=O)[nH]c1=O [Example 149, 5-amino-N-((1R,3R)-3-(1-benzyl-1H-pyrazol-4-ylcarbamoyl)cyclopentyl)-2,6-dioxo-1,2,3,6-tetrahydropyrimidine-4-carboxamide] |
|  | ≤ 10 µM | Nc1c(C(=O)N[C@H]2CC[C@@H](c3ccccc3)CC2)n(-c2ccc(Cl)c(Cl)c2)c(=O)[nH]c1=O [Example 204, 5-amino-3-(3,4-dichlorophenyl)-2,6 dioxo-N-(cis-4-phenylcyclohexyl)-1,2,3,6-tetrahydropyrimidine-4-carboxamide] |
| 1.06 µM | ≤ 10 µM | CCOC(=O)N1CCC(NC(=O)c2[nH]c(=O)[nH]c(=O)c2N)c2ccccc21 (racemic) [Example 25, ethyl 4-(5-amino-2,6-dioxo-1,2,3,6-tetrahydropyrimidine-4-carboxamido)-3,4-dihydroqiiinoline-1(2H)-carboxylate] |
| 0.946 µM | ≤ 10 µM | Nc1c(C(=O)NC2CCN(c3nc(Br)nn3Cc3ccccc3)C2)[nH]c(=O)[nH]c1=O (stereo not drawn) [Example 187, 5-amino-N-(1-(1-benzyl-3-bromo-1H 1,2,4-triazol-5-yl)pyrrolidin-3-yl)-2,6 dioxo-1,2,3,6-tetrahydropyrimidine-4 carboxamide] |
| 2.78 µM | ≤ 10 µM | Nc1c(C(=O)N[C@@H]2CCc3c2cccc3C(F)(F)F)[nH]c(=O)[nH]c1=O [Example 14, (R)-5-amino-2,6-dioxo-N-(4-(trifluoromethyl)-2,3-dihydro-1H-inden-1-yl)-1,2,3,6-tetrahydropyrimidine-4-carboxamide] |
|  | ≤ 10 µM | Cc1cc(Cl)nc(N2CCCC(NC(=O)c3[nH]c(=O)[nH]c(=O)c3N)C2)n1 (stereo not drawn) [Example 185, 5-amino-N-(1-(4-chloro-6-methylpyrimidin-2-yl)piperidin-3-yl)-2,6-dioxo-1,2,3,6-tetrahydropyrimidine-4-carboxamide] |
|  | ≤ 10 µM | Nc1c(C(=O)N[C@@H]2CC[C@H](c3ccccc3)c3ccccc32)[nH]c(=O)[nH]c1=O [Example 19, 5-amino-2,6-dioxo-N-((1R,4R)-4-phenyl-1,2,3,4-tetrahydronaphthalen-1-yl)-1,2,3,6-tetrahydropyrimidine-4-carboxamide] |
|  | ≤ 10 µM | COc1ccccc1C1CCC(NC(=O)c2[nH]c(=O)[nH]c(=O)c2N)C1 (stereo not drawn) [Example 141, 5-amino-N-(3-(2-methoxyphenyl)cyclopentyl)-2,6-dioxo-1,2,3,6-tetrahydropyrimidine-4-carboxamide] |
|  | ≤ 10 µM | Nc1c(C(=O)N[C@@H]2CC(c3ccccc3)c3ccccc32)[nH]c(=O)[nH]c1=O (stereo in doubt) [Example 29, 5-amino-2,6-dioxo-N-((1R,3S)-3-phenyl-2,3-dihydro-1H-inden-1-yl)-1,2,3,6-tetrahydropyrimidine-4-carboxamide] |
|  | ≤ 10 µM | Nc1c(C(=O)N[C@@H]2CC[C@@H](c3ccccc3)C2)[nH]c(=O)[nH]c1=O [Example 77, 5-amino-2,6-dioxo-N-((1R,3R)-3-phenylcyclopentyl)-1,2,3,6-tetrahydropyrimidine-4-carboxamide] |
|  | ≤ 10 µM | COc1ccc2c(c1)[C@@H](NC(=O)c1[nH]c(=O)[nH]c(=O)c1O)CCC2 [Example 265, (S)-5-hydroxy-N-(7-methoxy-1,2,3,4-tetrahydronaphthalen-1-yl)-2,6-dioxo-1,2,3,6-tetrahydropyrimidine-4-carboxamide] |
|  | ≤ 10 µM | O=C(Cn1c(=O)[nH]c(C(=O)N[C@H]2CC[C@@H](c3ccccc3)CC2)c(O)c1=O)N[C@H]1CC[C@@H](c2ccccc2)CC1 [Example 268, 5-Hydroxy-2,6-dioxo-1-(2-oxo-2-((cis-4-phenylcyclohexyl)amino)ethyl)-N-(cis-4-phenylcyclohexyl)-1,2,3,6-tetrahydropyrimidine-4-carboxamide] |
|  | ≤ 10 µM | Nc1c(C(=O)N[C@H]2CCN(c3ccccc3)C2)[nH]c(=O)[nH]c1=O [Example 192, (S)-5-amino-2,6-dioxo-N-(1-phenylpyrrolidin-3-yl)-1,2,3,6-tetrahydropyrimidine-4-carboxamide] |
|  | ≤ 10 µM | COC(=O)C1CCCC(NC(=O)c2[nH]c(=O)[nH]c(=O)c2N)C1 (stereo not drawn) [Example 58, methyl 3-(5-amino-2,6-dioxo-1,2,3,6-tetrahydropyrimidine-4-carboxamido) cyclohexanecarboxylate] |
|  | ≤ 10 µM | COc1cccc2c1CCC[C@H]2NC(=O)c1[nH]c(=O)[nH]c(=O)c1O [Example 261, (R)-5-hydroxy-N-(5-methoxy-1,2,3,4-tetrahydronaphthalen-1-yl)-2,6-dioxo-1,2,3,6-tetrahydropyrimidine-4-carboxamide] |
|  | ≤ 10 µM | CN(C)c1cccc(-c2ccc([C@@H]3CC[C@H](NC(=O)c4[nH]c(=O)[nH]c(=O)c4N)C3)cc2)c1 [Example 166, 5-amino-N-((1S,3R)-3-(3′-(dimethylamino)biphenyl-4-yl)cyclopentyl)-2,6-dioxo-1,2,3,6-tetrahydropyrimidine-4-carboxamide] |
|  | ≤ 10 µM | Nc1c(C(=O)N[C@H]2CC[C@@H](NC(=O)OCc3ccccc3)CC2)[nH]c(=O)[nH]c1=O [Example 119, benzyl cis-4-(5-amino-2,6-dioxo-1,2,3,6-tetrahydropyrimidine-4-carboxamido)cyclohexylcarbamate] |
| 1.48 µM | ≤ 10 µM | Cc1nc(-c2ccccc2)sc1-c1ccc([C@@H]2CC[C@H](NC(=O)c3[nH]c(=O)[nH]c(=O)c3N)C2)cc1 (stereo in doubt) [Example 171, 5-amino-N-((1S,3R)-3-(4-(4-methyl-2-phenylthiazol-5-yl)phenyl)cyclopentyl)-2,6-dioxo-1,2,3,6-tetrahydropyrimidine-4-carboxamide] |
|  | ≤ 10 µM | Cn1c(C(=O)N[C@H]2CC[C@@H](c3ccccc3)CC2)c(O)c(=O)[nH]c1=O [Example 241, 5-Hydroxy-3-methyl-2,6-dioxo-N-(cis-4-phenylcyclohexyl)-1,2,3,6-tetrahydropyrimidine-4-carboxamide] |
|  | ≤ 10 µM | CN1CCC(Nc2c(C(=O)N[C@H]3CC[C@@H](c4ccccc4)CC3)[nH]c(=O)[nH]c2=O)CC1 [Example 230, 5-(1-methylpiperidin-4-ylamino)-2,6-dioxo-N-(cis-4-phenylcyclohexyl)-1,2,3,6-tetrahydropyrimidine-4-carboxamide] |
|  | ≤ 10 µM | Nc1c(C(=O)N[C@H]2CC[C@@H](c3cccc(C(F)(F)F)c3)CC2)[nH]c(=O)[nH]c1=O [Example 30, 5-amino-2,6-dioxo-N-(cis-4-(3-(trifluoromethyl)phenyl)cyclohexyl)-1,2,3,6-tetrahydropyrimidine-4-carboxamide] |
|  | ≤ 10 µM | COC(=O)C1CCCCC1NC(=O)c1[nH]c(=O)[nH]c(=O)c1N (stereo not drawn) [Example 56, methyl 2-(5-amino-2,6-dioxo-1,2,3,6-tetrahydropyrimidine-4-carboxamido) cyclohexanecarboxylate] |
|  | ≤ 10 µM | Nc1c(C(=O)N[C@H]2CCc3ccc(Br)cc32)[nH]c(=O)[nH]c1=O [Example 55, (S)-5-amino-N-(6-bromo-2,3-dihydro-1H-inden-1-yl)-2,6-dioxo-1,2,3,6-tetrahydropyrimidine-4-carboxamide] |
|  | ≤ 10 µM | O=C(Cc1ccccc1)N[C@H]1CC[C@@H](NC(=O)c2[nH]c(=O)[nH]c(=O)c2O)CC1 [Example 279, 5-hydroxy-2,6-dioxo-N-(cis-4-(2-phenylacetamido)cyclohexyl)-1,2,3,6-tetrahydropyrimidine-4-carboxamide] |
|  | ≤ 10 µM | Nc1c(C(=O)N[C@H]2CCCc3c(OCc4ccccc4F)cccc32)[nH]c(=O)[nH]c1=O [Example 97, (S)-5-amino-N-(5-(2-fluorobenzyloxy)-1,2,3,4-tetrahydronaphthalen-1-yl)-2,6-dioxo-1,2,3,6-tetrahydropyrimidine-4-carboxamide] |
|  | ≤ 10 µM | Nc1c(C(=O)NC2CCCC(c3ccccc3)C2)[nH]c(=O)[nH]c1=O (stereo not drawn) [Example 101, 5-amino-2,6-dioxo-N-(3-phenylcyclohexyl)-1,2,3,6-tetrahydropyrimidine-4-carboxamide] |
